Values after ≈ are worked out from the molar mass of the structure shown.
Key:
Test in all cases: minimal inhibitory concentration, two-fold agar dilution
Type in all cases: cell-based
[1] = tested on: Pseudomonas aeruginosa ATCC 10145; conditions: ATCC10145, Muller-Hinton agar, 37°C, 20 hours, read-out: MIC values against the standard strains
Procedure, shortened: (§1)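 Compounds were serially diluted two-fold into Mueller-Hinton agar, and each plate was spot-inoculated with the test strain at 10⁷ CFU per ml. Plates were incubated at 37°C for 20 hours before MIC values were read.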

[2] = tested on: Escherichia coli ATCC 25922; conditions: ATCC25922, Muller-Hinton agar, 37°C, 20 hours, read-out: MIC values against the standard strains
Procedure, shortened: as §1

[3] = tested on: Staphylococcus epidermidis ATCC 12228; conditions: ATCC12228, Muller-Hinton agar, 37°C, 20 hours, read-out: MIC values against the standard strains
Procedure, shortened: as §1

[4] = tested on: Proteus vulgaris ATCC 6059; conditions: ATCC6059, Muller-Hinton agar, 37°C, 20 hours, read-out: MIC values against the standard strains
Procedure, shortened: as §1

[5] = tested on: Acinetobacter calcoaceticus ATCC 15437; conditions: ATCC15437, Muller-Hinton agar, 37°C, 20 hours, read-out: MIC values against the standard strains
Procedure, shortened: as §1

[6] = tested on: Serratia marcescens ATCC 27117; conditions: ATCC27117, Muller-Hinton agar, 37°C, 20 hours, read-out: MIC values against the standard strains
Procedure, shortened: as §1

[7] = tested on: Pseudomonas aeruginosa ATCC 27853; conditions: ATCC27853, Muller-Hinton agar, 37°C, 20 hours, read-out: MIC values against the standard strains
Procedure, shortened: as §1

[8] = tested on: Providencia rettgeri ATCC 9250; conditions: ATCC9250, Muller-Hinton agar, 37°C, 20 hours, read-out: MIC values against the standard strains
Procedure, shortened: as §1

[9] = tested on: Staphylococcus aureus ATCC 10537; conditions: ATCC10537, Muller-Hinton agar, 37°C, 20 hours, read-out: MIC values against the standard strains
Procedure, shortened: as §1

[10] = tested on: Bacillus cereus ATCC 11778; conditions: ATCC11778, Muller-Hinton agar, 37°C, 20 hours, read-out: MIC values against the standard strains
Procedure, shortened: as §1

[11] = tested on: Klebsiella pneumoniae ATCC 10031; conditions: ATCC10031, Muller-Hinton agar, 37°C, 20 hours, read-out: MIC values against the standard strains
Procedure, shortened: as §1

[12] = tested on: Micrococcus luteus ATCC 9341; conditions: ATCC9341, Muller-Hinton agar, 37°C, 20 hours, read-out: MIC values against the standard strains
Procedure, shortened: as §1

[13] = tested on: Shigella flexneri ATCC 11836; conditions: ATCC11836, Muller-Hinton agar, 37°C, 20 hours, read-out: MIC values against the standard strains
Procedure, shortened: as §1

[14] = tested on: Streptococcus faecalis ATCC 29212; conditions: Enterococcus faecalis, ATCC29212; Muller-Hinton agar; 37°C; 20 hours; read-out: MIC values against the standard strains
Procedure, shortened: as §1

[15] = tested on: Bacillus megaterium ATCC 9885; conditions: Priestia megaterium, ATCC9885; Muller-Hinton agar; 37°C; 20 hours; read-out: MIC values against the standard strains
Procedure, shortened: as §1

[16] = tested on: Enterobacter cloacae ATCC 27508; conditions: ATCC27508, Muller-Hinton agar, 37°C, 20 hours, read-out: MIC values against the standard strains
Procedure, shortened: as §1

[17] = tested on: Proteus mirabilis ATCC 25933; conditions: ATCC25933, Muller-Hinton agar, 37°C, 20 hours, read-out: MIC values against the standard strains
Procedure, shortened: as §1

[18] = tested on: Citrobacter freundii ATCC 8090; conditions: ATCC8090, Muller-Hinton agar, 37°C, 20 hours, read-out: MIC values against the standard strains
Procedure, shortened: as §1

[19] = tested on: Salmonella typhimurium ATCC 14028; conditions: Salmonella enterica; Muller-Hinton agar; 37°C; 20 hours; read-out: MIC values against the standard strains
Procedure, shortened: as §1

[20] = tested on: Enterobacter aerogenes ATCC 29751; conditions: Klebsiella aerogenes, ATCC29751; Muller-Hinton agar; 37°C; 20 hours; read-out: MIC values against the standard strains
Procedure, shortened: as §1

[21] = tested on: Staphylococcus aureus ATCC 6538p; conditions: ATCC6538P, Muller-Hinton agar, 37°C, 20 hours, read-out: MIC values against the standard strains
Procedure, shortened: as §1

[22] = tested on: Escherichia coli ATCC 10536; conditions: ATCC10536, Muller-Hinton agar, 37°C, 20 hours, read-out: MIC values against the standard strains
Procedure, shortened: as §1

[23] = tested on: Shigella sonnei ATCC 11060; conditions: ATCC11060, Muller-Hinton agar, 37°C, 20 hours, read-out: MIC values against the standard strains
Procedure, shortened: as §1

[24] = tested on: Morganella morganii ATCC 8076h; conditions: ATCC8076H, Muller-Hinton agar, 37°C, 20 hours, read-out: MIC values against the standard strains
Procedure, shortened: as §1

[25] = tested on: Pseudomonas aeruginosa ATCC 25619; conditions: ATCC25619, Muller-Hinton agar, 37°C, 20 hours, read-out: MIC values against the standard strains
Procedure, shortened: as §1

In the case of `CCO/N=C(\C(=O)N[C@@H]1C(=O)N2C(C(=O)[O-])=C(CSc3nc(N)cc(OC)[n+]3C)CS[C@H]12)c1csc(N)n1` [Example 18, 7-[(Z)-2-(2-aminothiazol-4-yl)-2-(ethoxyimino)acetamido]-3-(4-amino-6-methoxy-1-methylpyrimidinium-2-yl)thiomethyl-3-cephem-4-carboxylate], the MIC [1] is reported as 16 µg/mL (≈ 27.6 µM), the MIC [2] is reported as 0.25 µg/mL (≈ 0.431 µM) and the MIC [3] is reported as 0.13 µg/mL (≈ 0.224 µM). For the same molecule, the MIC [4] was 0.5 µg/mL (≈ 0.861 µM), the MIC [5] was 8 µg/mL (≈ 13.8 µM) and the MIC [6] was 0.5 µg/mL (≈ 0.861 µM). For the same molecule, the MIC [7] was 16 µg/mL (≈ 27.6 µM), the MIC [8] was ≤ 0.008 µg/mL and the MIC [9] was 0.25 µg/mL (≈ 0.431 µM). The MIC [10] was 32 µg/mL (≈ 55.1 µM), the MIC [11] was ≤ 0.008 µg/mL and the MIC [12] was 0.016 µg/mL (≈ 0.0276 µM). For the same molecule, the MIC [13] was 0.13 µg/mL (≈ 0.224 µM), the MIC [14] was 16 µg/mL (≈ 27.6 µM) and the MIC [15] was 0.13 µg/mL (≈ 0.224 µM). The MIC [16] was ≤ 0.008 µg/mL, the MIC [17] was 0.5 µg/mL (≈ 0.861 µM) and the MIC [18] was 0.13 µg/mL (≈ 0.224 µM). The MIC [19] was 0.5 µg/mL (≈ 0.861 µM), the MIC [20] was 1 µg/mL (≈ 1.72 µM) and the MIC [21] was 0.5 µg/mL (≈ 0.861 µM). The MIC [22] was 0.13 µg/mL (≈ 0.224 µM), the MIC [23] was 0.25 µg/mL (≈ 0.431 µM) and the MIC [24] was ≤ 0.008 µg/mL. It also gave an MIC [25] of 2 µg/mL (≈ 3.44 µM).
For `C[n+]1c(SCC2=C(C(=O)[O-])N3C(=O)[C@@H](NC(=O)/C(=N\O)c4csc(N)n4)[C@H]3SC2)nc(N)c(N)c1N` [Example 9, 7-[(Z)-2-(2-aminothiazol-4-yl)-2-oxyiminoacetamido]-3-(4,5,6-triamino-1-methylpyrimidinium-2-yl)thiomethyl-3-cephem-4-carboxylate], the MIC [1] was 128 µg/mL (≈ 232 µM), the MIC [2] was 0.031 µg/mL (≈ 0.0561 µM) and the MIC [3] was 0.063 µg/mL (≈ 0.114 µM). For the same molecule, the MIC [4] was 0.063 µg/mL (≈ 0.114 µM), the MIC [5] was 0.13 µg/mL (≈ 0.235 µM) and the MIC [6] was 0.25 µg/mL (≈ 0.452 µM). For the same molecule, the MIC [7] was 128 µg/mL (≈ 232 µM), the MIC [8] was ≤ 0.008 µg/mL and the MIC [9] was 0.13 µg/mL (≈ 0.235 µM). For the same molecule, the MIC [10] was 16 µg/mL (≈ 29 µM), the MIC [11] was 0.031 µg/mL (≈ 0.0561 µM) and the MIC [12] was 0.031 µg/mL (≈ 0.0561 µM). The MIC [13] was 0.063 µg/mL (≈ 0.114 µM), the MIC [14] was 2 µg/mL (≈ 3.62 µM) and the MIC [15] was 0.063 µg/mL (≈ 0.114 µM). The MIC [16] was ≤ 0.008 µg/mL, the MIC [17] was 0.031 µg/mL (≈ 0.0561 µM) and the MIC [18] was 0.016 µg/mL (≈ 0.029 µM). It also gave an MIC [19] of 0.25 µg/mL (≈ 0.452 µM), an MIC [20] of 0.016 µg/mL (≈ 0.029 µM) and an MIC [21] of 0.25 µg/mL (≈ 0.452 µM). For the same molecule, the MIC [22] was 0.031 µg/mL (≈ 0.0561 µM), the MIC [23] was 0.25 µg/mL (≈ 0.452 µM) and the MIC [24] was ≤ 0.008 µg/mL. The MIC [25] was 64 µg/mL (≈ 116 µM).
`CCO/N=C(\C(=O)N[C@@H]1C(=O)N2C(C(=O)[O-])=C(CSc3nc(N)cc[n+]3CC)CS[C@H]12)c1nsc(N)n1` [Example 16, 7-[(Z)-2-(5-amino-1,2,4-thiadiazol-3-yl)-2-(ethoxyimino)acetamido]-3-(4-amino-1-ethylpyrimidinium-2-yl)thiomethyl-3-cephem-4-carboxylate] showed an MIC [1] of 16 µg/mL (≈ 28.3 µM), an MIC [2] of 0.031 µg/mL (≈ 0.0548 µM) and an MIC [3] of 0.5 µg/mL (≈ 0.884 µM). It also gave an MIC [4] of 2 µg/mL (≈ 3.54 µM), an MIC [5] of 8 µg/mL (≈ 14.1 µM) and an MIC [6] of 1 µg/mL (≈ 1.77 µM). For the same molecule, the MIC [7] was 4 µg/mL (≈ 7.07 µM), the MIC [8] was 0.031 µg/mL (≈ 0.0548 µM) and the MIC [9] was 0.5 µg/mL (≈ 0.884 µM). For the same molecule, the MIC [10] was 64 µg/mL (≈ 113 µM), the MIC [11] was 0.016 µg/mL (≈ 0.0283 µM) and the MIC [12] was 0.5 µg/mL (≈ 0.884 µM). The MIC [13] was 0.5 µg/mL (≈ 0.884 µM), the MIC [14] was 32 µg/mL (≈ 56.6 µM) and the MIC [15] was 0.5 µg/mL (≈ 0.884 µM). The MIC [16] was 0.063 µg/mL (≈ 0.111 µM), the MIC [17] was 2 µg/mL (≈ 3.54 µM) and the MIC [18] was 0.5 µg/mL (≈ 0.884 µM). For the same molecule, the MIC [19] was 1 µg/mL (≈ 1.77 µM), the MIC [20] was 0.063 µg/mL (≈ 0.111 µM) and the MIC [21] was 0.25 µg/mL (≈ 0.442 µM). It also gave an MIC [22] of 0.031 µg/mL (≈ 0.0548 µM), an MIC [23] of 0.5 µg/mL (≈ 0.884 µM) and an MIC [24] of 0.031 µg/mL (≈ 0.0548 µM). For the same molecule, the MIC [25] was 2 µg/mL (≈ 3.54 µM).
`CCO/N=C(\C(=O)N[C@@H]1C(=O)N2C(C(=O)[O-])=C(CSc3nc(N)c(N)c(N)[n+]3C)CS[C@H]12)c1csc(N)n1` [Example 3, 7-[(Z)-2-(aminothiazol-4-yl)-2-(ethoxyimino)acetamido]-3-(4,5,6-triamino-1-methylpyrimidinium-2-yl)thiomethyl-3-cephem-4-carboxylate] was tested, and the MIC [1] was 8 µg/mL (≈ 13.8 µM), the MIC [2] was 0.063 µg/mL (≈ 0.108 µM) and the MIC [3] was 0.13 µg/mL (≈ 0.224 µM). The MIC [4] was 0.25 µg/mL (≈ 0.431 µM), the MIC [5] was 8 µg/mL (≈ 13.8 µM) and the MIC [6] was 0.25 µg/mL (≈ 0.431 µM). The MIC [7] was 4 µg/mL (≈ 6.89 µM), the MIC [8] was ≤ 0.008 µg/mL and the MIC [9] was 0.25 µg/mL (≈ 0.431 µM). For the same molecule, the MIC [10] was 32 µg/mL (≈ 55.1 µM), the MIC [11] was ≤ 0.008 µg/mL and the MIC [12] was 0.031 µg/mL (≈ 0.0534 µM). The MIC [13] was 0.063 µg/mL (≈ 0.108 µM), the MIC [14] was 64 µg/mL (≈ 110 µM) and the MIC [15] was 0.031 µg/mL (≈ 0.0534 µM). For the same molecule, the MIC [16] was 0.016 µg/mL (≈ 0.0276 µM), the MIC [17] was 0.25 µg/mL (≈ 0.431 µM) and the MIC [18] was 0.063 µg/mL (≈ 0.108 µM). The MIC [19] was 0.5 µg/mL (≈ 0.861 µM), the MIC [20] was 0.5 µg/mL (≈ 0.861 µM) and the MIC [21] was 0.5 µg/mL (≈ 0.861 µM). The MIC [22] was 0.063 µg/mL (≈ 0.108 µM), the MIC [23] was 0.25 µg/mL (≈ 0.431 µM) and the MIC [24] was ≤ 0.008 µg/mL. The MIC [25] was 0.5 µg/mL (≈ 0.861 µM).
